Experimental data as given in US11464802B2, “3-substituted piperidine compounds for Cbl-b inhibition, and use thereof” (Nurix Therapeutics, Inc., priority 2019, dated 2022).

Columns and labels:
[1] = test system: primary human total T-cells; experiment: Primary human total T-cell activation: CD25 surface staining, Biological Example 9; assay type: cell-based; conditions: 48 hours, fold change over baseline; for fold induction at 0.3 µM: inhibitor 0.3 μM; for fold induction at 0.3 µM / fold induction at 3 µM: Table 9-1; for fold induction at 1 µM: inhibitor 1 μM; for fold induction at 3 µM: inhibitor 3 μM
[2] = test system: primary human total T-cells; experiment: Primary human total T-cell activation: IL-2 secretion, Biological Example 13; assay type: cell-based; conditions: 48 hours, fold change over baseline; for fold induction at 0.3 µM: inhibitor 0.3 μM; for fold induction at 0.3 µM / fold induction at 3 µM: Table 13-1; for fold induction at 1 µM: inhibitor 1 μM; for fold induction at 3 µM: inhibitor 3 μM
[3] = test system: primary human total T-cells; experiment: Primary human total T-cell activation: CD25 surface staining, Biological Example 13; assay type: cell-based; conditions: 48 hours, fold change over baseline; for fold induction at 0.3 µM: inhibitor 0.3 μM; for fold induction at 0.3 µM / fold induction at 3 µM: Table 13-1; for fold induction at 1 µM: inhibitor 1 μM; for fold induction at 3 µM: inhibitor 3 μM
[4] = test system: primary human total T-cells; experiment: Primary human total T-cell activation: IL-2 secretion, Biological Example 9; assay type: cell-based; conditions: 48 hours, fold change over baseline; for fold induction at 0.3 µM: inhibitor 0.3 μM; for fold induction at 0.3 µM / fold induction at 3 µM: Table 9-1; for fold induction at 1 µM: inhibitor 1 μM; for fold induction at 3 µM: inhibitor 3 μM
Cbl-b [5] = target: T1, Cbl-b (Homo sapiens (Human), UniProt Q13191); experiment: Cbl-b displacement assay (Cbl-b inhibition assay), Biological Example 12; assay type: binding; conditions: 0.125 nM Cbl-b final concentration (Low); Table 12-1; read-out: Cbl-b IC50 (Low)
Procedure: (§1) Candidate compounds were evaluated for their ability to bind and inhibit Cbl-b, an E3 ubiquitin-protein ligase, as evidenced by their ability to displace a fluorophore-labeled probe bound to Cbl-b.
(§2) The ability of candidate compounds to displace a known inhibitor and thereby inhibit Cbl-b activity was measured by monitoring the interaction of Cbl-b with a fluorophore-labeled probe in the presence of the candidate compound. A truncated variant of Cbl-b (UniProt number Q13191) containing residues 36-427 and an Avitag at its N-terminus was co-expressed with BirA biotin ligase and purified using a standard protocol (see Dou et al., Nature Structural and Molecular Biology 8: 982-987, 2013; Avidity LLC).
(§3) Fluorescently-labeled inhibitor probe was synthesized and tagged with BODIPY FL. Cbl-b displacement assays were performed in a 384-well plate at room temperature in a 10 μl reaction volume by pre-incubating 0.5 nM Cbl-b or 0.125 nM Cbl-b (final concentration, indicated as “High” and “Low”, respectively) in an assay buffer containing 20 mM HEPES pH 7.5, 150 mM NaCl, 0.01% Triton X-100, 0.01% BSA and 0.5 mM TCEP in the presence of a candidate compound in 1% DMSO (final concentration) for 1 hour. After incubation in the presence of the candidate compound, the plate was incubated for an additional 1 hour in the presence of an approximate EC40 binding saturation consisting of 150 nM fluorescently-labeled inhibitor probe and 2 nM Streptavidin-Terbium (Cisbio) (final concentrations). Following the 1 hour incubation, the plates were read for TR-FRET signal at 520/620 nM using an Envision plate reader (Perkin Elmer).
(§4) The resulting data for the Cbl-b activity assays were analyzed using standard methods to determine the IC50 values for the tested compounds.

Cbl-b [6] = target: T1, Cbl-b; experiment: Cbl-b displacement assay (Cbl-b inhibition assay), Biological Example 8; assay type: binding; conditions: 0.125 nM Cbl-b final concentration (Low); Table 8-1; read-out: Cbl-b IC50 (Low)
Procedure: as §1, §2, §3, §4

Cbl-b [7] = target: T1, Cbl-b; experiment: Cbl-b displacement assay (Cbl-b inhibition assay), TR-FRET probe displacement, Biological Example 1; assay type: binding
How it was run: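 TR-FRET displacement of a BODIPY FL-labelled inhibitor probe (150 nM, ~EC40) from biotin-Avitag truncated Cbl-b, detected via 2 nM streptavidin-Tb, 1 h, room temperature. Compound in 1% DMSO pre-incubated 1 h with Cbl-b at 0.5 nM (High) or 0.125 nM (Low) in 20 mM HEPES pH 7.5, 150 mM NaCl, 0.5 mM TCEP.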

[8] = test system: primary human total T-cells; experiment: Primary human total T-cell activation: CD25 surface staining, Biological Example 2; assay type: cell-based; conditions: 48 hours, fold change over baseline; for fold induction at 0.3 µM: inhibitor 0.3 μM; for fold induction at 1 µM: inhibitor 1 μM; for fold induction at 3 µM: inhibitor 3 μM
[9] = test system: primary human total T-cells; experiment: Primary human total T-cell activation: IL-2 secretion, Biological Example 2; assay type: cell-based; conditions: 48 hours, fold change over baseline; for fold induction at 0.3 µM: inhibitor 0.3 μM; for fold induction at 1 µM: inhibitor 1 μM; for fold induction at 3 µM: inhibitor 3 μM
[10] = anti-CD3/anti-CD28 co-stimulation
[11] = anti-CD3/anti-CD28 co-stimulation, Table 9-1, read-out: CD25 staining CD3/CD28 1 μM
[12] = anti-CD3 alone, Table 9-1, read-out: CD25 staining CD3 1 μM
[13] = anti-CD3/anti-CD28 co-stimulation, Table 13-1, read-out: IL-2 secretion CD3/CD28 1 μM
[14] = anti-CD3 alone, Table 13-1, read-out: IL-2 secretion CD3 1 μM
[15] = anti-CD3/anti-CD28 co-stimulation, Table 13-1, read-out: CD25 staining CD3/CD28 1 μM
[16] = anti-CD3 alone, Table 13-1, read-out: CD25 staining CD3 1 μM
[17] = anti-CD3/anti-CD28 co-stimulation, Table 9-1, read-out: IL-2 secretion CD3/CD28 1 μM
[18] = anti-CD3 alone, Table 9-1, read-out: IL-2 secretion CD3 1 μM
[19] = 0.125 nM Cbl-b final concentration (Low), read-out: Cbl-b activity IC50 (Low)
[20] = anti-CD3/anti-CD28 co-stimulation, read-out: CD25 staining CD3/CD28 1 μM
[21] = anti-CD3 alone, read-out: CD25 staining CD3 1 μM
[22] = anti-CD3/anti-CD28 co-stimulation, read-out: IL-2 secretion CD3/CD28 1 μM
[23] = anti-CD3 alone, read-out: IL-2 secretion CD3 1 μM

T1 sequence (Q13191 36-427): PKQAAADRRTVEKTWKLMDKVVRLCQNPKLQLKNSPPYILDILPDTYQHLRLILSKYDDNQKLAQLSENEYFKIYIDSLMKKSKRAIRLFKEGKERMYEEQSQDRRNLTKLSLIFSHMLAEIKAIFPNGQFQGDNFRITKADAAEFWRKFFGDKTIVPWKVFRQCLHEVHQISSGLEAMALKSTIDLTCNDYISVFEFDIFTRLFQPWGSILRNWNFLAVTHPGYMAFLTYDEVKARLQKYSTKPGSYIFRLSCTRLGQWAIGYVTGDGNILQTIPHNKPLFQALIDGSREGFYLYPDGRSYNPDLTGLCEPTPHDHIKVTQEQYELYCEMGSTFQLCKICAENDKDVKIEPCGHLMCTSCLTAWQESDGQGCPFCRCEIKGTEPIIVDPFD

Structure (SMILES)	fold induction at 0.3 µM [1, 10]	fold induction at 1 µM [1, 11]	fold induction at 1 µM [1, 12]	fold induction at 0.3 µM [2, 10]	fold induction at 1 µM [2, 13]	fold induction at 1 µM [2, 14]	fold induction at 0.3 µM [3, 10]	fold induction at 1 µM [3, 15]	fold induction at 1 µM [3, 16]	fold induction at 0.3 µM [4, 10]	fold induction at 1 µM [4, 17]	fold induction at 1 µM [4, 18]	IC50 (Cbl-b [5])	IC50 (Cbl-b [6])	IC50 (Cbl-b [7]; [19])	fold induction at 0.3 µM [8, 10]	fold induction at 1 µM [8, 20]	fold induction at 1 µM [8, 21]	fold induction at 3 µM ([8]; anti-CD3 alone)	fold induction at 0.3 µM [9, 10]	other results
C[C@@H](c1cc2c(c(C(F)(F)F)c1)CN(c1cccc(C3(Cc4nncn4C)COC3)c1)C2=O)N1CCC(F)CC1 [Compound 61]	> 1.39	> 1.39	> 1.14	> 15	> 15	0.34 to 0.66	> 1.39	> 1.39	> 1.14	> 15	> 15	0.34 to 0.66	1 to 5 nM	1 to 5 nM							fold induction at 3 µM ([1]; anti-CD3 alone): > 1.14; fold induction at 3 µM ([2]; anti-CD3 alone): 0.34 to 0.66; fold induction at 3 µM ([3]; anti-CD3 alone): > 1.14; fold induction at 3 µM ([4]; anti-CD3 alone): 0.34 to 0.66
C[C@@H]1CN(Cc2cc3c(c(C4CC4)n2)CN(c2cccc(C4(Cc5nncn5C)COC4)c2)C3=O)CCC1(F)F [Compound 34, (R)-4-Cyclopropyl-6-((4,4-difluoro-3-methylpiperidin-1-yl)methyl)-2-(3-(3-((4-methyl-4H-1,2,4-triazol-3-yl)methyl)oxetan-3-yl)phenyl)-2,3-dihydro-1H-pyrrolo[3,4-c]pyridin-1-one]													1 to 5 nM	1 to 5 nM	1 to 5 nM						
C[C@@H]1[C@@H](c2nncn2C)[C@H]1c1cccc(N2Cc3c(cccc3C(F)(F)F)C2=O)c1 [Compound 54]	1.25 to 1.39	1.25 to 1.39	> 1.14	< 10	< 10	< 0.33	1.25 to 1.39	1.25 to 1.39	> 1.14	< 10	< 10	< 0.33	> 5 nM	> 5 nM							
C[C@H](c1cc2c(c(C(F)(F)F)c1)CN(c1cccc(C3(Cc4nncn4C)COC3)c1)C2=O)N1CC[C@H](F)C1 [Compound 56]	1.25 to 1.39	> 1.39	> 1.14	11 to 15	11 to 15	< 0.33	1.25 to 1.39	> 1.39	> 1.14	10 to 15	10 to 15	< 0.33	> 5 nM	> 5 nM							
C[C@@H](c1cc2c(c(C(F)(F)F)c1)CN(c1cccc(C3(Cc4nncn4C)COC3)c1)C2=O)N1CC[C@H](F)C1 [Compound 55]	> 1.39	> 1.39	> 1.14	> 15	> 15	0.34 to 0.66	> 1.39	> 1.39	> 1.14	> 15	> 15	0.34 to 0.66	1 to 5 nM	1 to 5 nM							fold induction at 3 µM ([1]; anti-CD3 alone): > 1.14; fold induction at 3 µM ([2]; anti-CD3 alone): 0.34 to 0.66; fold induction at 3 µM ([3]; anti-CD3 alone): > 1.14; fold induction at 3 µM ([4]; anti-CD3 alone): 0.34 to 0.66
C[C@H]1CCCN([C@H](C)c2cc3c(c(C4CC4)n2)CN(c2cccc(C4(Cc5nncn5C)COC4)c2)C3=O)C1 [Compound 52, 4-cyclopropyl-2-(3-(3-((4-methyl-4H-1,2,4-triazol-3-yl)methyl)oxetan-3-yl)phenyl)-6-((R)-1-((S)-3-methylpiperidin-1-yl)ethyl)-2,3-dihydro-1H-pyrrolo[3,4-c]pyridin-1-one]															1 to 5 nM	> 1.39	> 1.39	> 1.14	> 1.14	> 15	IC50 (Cbl-b [7]; Cbl-b concentration (High or Low) not given, read-out: IC50 values in the Cbl-b inhibition assay of Biological Example 1): 1 to 5 nM; fold induction at 1 µM [9, 22]: > 15; fold induction at 1 µM [9, 23]: > 0.66; fold induction at 3 µM ([9]; anti-CD3 alone): > 0.66
C[C@H]1CCCN(Cc2cc3c(c(C(F)(F)F)c2)CN(c2cccc(C4(Cc5nncn5C)COC4)c2)C3=O)[C@H]1C (relative stereo) [Compound 19, 6-((cis-2,3-dimethylpiperidin-1-yl)methyl)-2-(3-(3-((4-methyl-4H-1,2,4-triazol-3-yl)methyl)oxetan-3-yl)phenyl)-4-(trifluoromethyl)isoindolin-1-one]															1 to 5 nM	1.25 to 1.39	1.25 to 1.39	1.05 to 1.14	1.05 to 1.14	< 10	fold induction at 1 µM [9, 22]: 11 to 15; fold induction at 1 µM [9, 23]: < 0.33; fold induction at 3 µM ([9]; anti-CD3 alone): 0.34 to 0.66
C[C@H]1CN(Cc2cc(C(=O)Nc3cccc(C4(Cc5nncn5C)COC4)c3)nc(C3CC3)c2)CCC1(F)F [Compound 33, 6-cyclopropyl-4-{[(3S)-4,4-difluoro-3-methylpiperidin-1-yl]methyl}-N-(3-{3-[(4-methyl-1,2,4-triazol-3-yl)methyl]oxetan-3-yl}phenyl)pyridine-2-carboxamide]																< 1.24	< 1.24	1.05 to 1.14	1.05 to 1.14	11 to 15	IC50 (Cbl-b [7]; 0.5 nM Cbl-b final concentration (High), read-out: Cbl-b activity IC50 (High)): 1 to 5 nM; fold induction at 1 µM [9, 22]: 11 to 15; fold induction at 1 µM [9, 23]: < 0.33; fold induction at 3 µM ([9]; anti-CD3 alone): 0.34 to 0.66
